Several values for one entry are separate records, joined by “and”; a condition that tells them apart may be missing. Identical values can stand only once. Counter-ions that a name gives are not always drawn.
What was measured:
Vero E6 cells = conditions: Vero E6
SARS-CoV-2 USA_WA1/2020 [1] = conditions: hamster
SARS-CoV-2 USA_WA1/2020 [2] = assay: microbe, parasite or virus in culture; type: cell-based; conditions: Example C (Table 3)

## Nc1c(Br)cc(Br)cc1CN[C@H]1CC[C@H](O)CC1 [AMB, 4-[(2-amino-3,5-dibromophenyl)methylamino]cyclohexan-1-ol; hydrochloride]
Vero E6 cells; Example C (Table 4)
  Conc. at Max. % Viability: 0.59 µM
  Conc. at Min. % Viability: 300 µM
  Min. Viability: 0.55%
Vero E6 cells; Example C (Table 4), hydrochloride
  Max. Viability: 96% and 96.64%
Vero E6 cells; at 30 μM, Example B
  percent minimum viability: 113.95%
SARS-CoV-2 USA_WA1/2020 [1]
  Overall Gmean Days 1-4, E sgRNA, rectal swabs: 4.21 copies/swab
  Overall Gmean Days 1-4 higher than Group 3, E sgRNA, rectal swabs: 3 fold
  Peak viral load versus Group 3, N2 gRNA, rectal swabs: similar
  Peak viral replication load higher than Group 3, E sgRNA, rectal swabs: 6 fold
SARS-CoV-2 USA_WA1/2020 [1]; Day 4
  SARS-CoV-2 genome load, N2 gRNA, lungs: 4.03E+09 copies/gram
  SARS-CoV-2 genome load, N2 gRNA, trachea: 6.24E+08 copies/gram
  active replication load higher than Group 3, E sgRNA, lungs: 2 fold
  active replication load, E sgRNA, lungs: 2.78E+07 copies/gram
  active replication load, E sgRNA, nasal turbinate: 1.09E+08 copies/gram
  active replication load, E sgRNA, trachea: 1.11E+06 copies/gram
  genome load higher than Group 3, N2 gRNA, lungs: 2 fold
  replication load higher than Group 3, E sgRNA, trachea: similar
  viral load higher than Group 3, N2 gRNA, trachea: similar
SARS-CoV-2 USA_WA1/2020 [1]; Day 4, ELISA, P<0.05
  serum IL-6 levels versus Group 3: significantly lower
SARS-CoV-2 USA_WA1/2020 [1]; Day −1, Day 2 (P<0.05), Day 4 (P<0.001)
  serum TNF-α versus Group 3: significantly low
SARS-CoV-2 USA_WA1/2020 [1]; Days −1, 2, 4
  serum IL-10 levels between groups: No significance difference
SARS-CoV-2 USA_WA1/2020 [1]; in vivo
  tolerability of administered doses: tolerated the administered doses well
SARS-CoV-2 USA_WA1/2020 [1]; lung histopathology
  incidence and severity of microscopic lesions versus vehicle control: similar
SARS-CoV-2 USA_WA1/2020 [1]; lung samples Day 4
  lung viral load by TCID50 assay versus vehicle control: No difference
SARS-CoV-2 USA_WA1/2020 [1]; necropsy Day 4
  SARS-CoV-2 genome load, N2 gRNA, nasal turbinate: 3.57E+10 copies/gram
  gross lesions in the lung: reduced gross lesions in the lung
SARS-CoV-2 USA_WA1/2020 [1]; AMB 500, BHH 200 mg/kg/day PO
  Overall Gmean Days 1-4, E sgRNA, pharyngeal swabs: 1.89E+04 copies/swab
  Overall Gmean Days 1-4 lower than Group 3, E sgRNA, pharyngeal swabs: 5 fold
  Overall Gmean Days 1-4 viral load lower than Group 3, N2 gRNA, pharyngeal swabs: 4 fold
  Overall Gmean viral load Days 1-4, N2 gRNA, pharyngeal swabs: 4.93E+07 copies/swab
  Peak viral load lower than vehicle (Group 3), N2 gRNA, pharyngeal swabs: 16 fold
  Peak viral replication load lower than Group 3, E sgRNA, pharyngeal swabs: 34 fold
SARS-CoV-2 USA_WA1/2020 [1]; AMB 500, BHH 200 mg/kg/day PO, peak Day 2 (AMB), Day 1 (BHH)
  Peak viral load, N2 gRNA, pharyngeal swabs: 9.01E+06 copies/swab
SARS-CoV-2 USA_WA1/2020 [1]; peak Day 1 (AMB), Day 2 (BHH)
  Peak viral replication load, E sgRNA, rectal swabs: 20.15 copies/swab
SARS-CoV-2 USA_WA1/2020 [1]; peak Day 2 (AMB), Day 1 (BHH)
  Peak viral replication load, E sgRNA, pharyngeal swabs: 2.79E+04 copies/swab
SARS-CoV-2 USA_WA1/2020 [1]; peak on Day 2
  Peak viral load, N2 gRNA, rectal swabs: 9.75E+04 copies/swab
SARS-CoV-2 USA_WA1/2020 [2]
  Concentration at Maximum % Inhibition: 150 µM
  Maximum Inhibition: 49.87%

Reference: US20240285552A1 (priority 2020, published 2024)
